In ChEMBL document CHEMBL5380822, “Design, Synthesis, and Biological Evaluation of Novel Hybrids Containing Dihydrochalcone as Tyrosinase Inhibitors to Treat Skin Hyperpigmentation” (J Med Chem, 2023):
Activity calls are given as the source filed them. No cut-off for these calls is given here.

Key:
Mushroom tyrosinase [1] = molecular target: T1, Mushroom tyrosinase (Agaricus bisporus, UniProt O42713+Q00024+C7FF04+C7FF05); test: Inhibition of Agaricus bisporus tyrosinase using L-tyrosine as substrate preincubated with compound for 20 mins followed by substrate addition measured after 10 mins by absorbance based assay
Mushroom tyrosinase [2] = molecular target: T1, Mushroom tyrosinase; test: Inhibition of Agaricus bisporus tyrosinase using L-dopa as substrate preincubated with compound for 20 mins followed by substrate addition measured after 5 mins by absorbance based assay
[3] = molecular target: T2, Tyrosinase (Homo sapiens) (UniProt P14679); test: Inhibition of TYR in alpha-MSH-stimulated human A-375 cells using L-Dopa as substrate at 20 uM incubated for 24 hrs by absorbance based assay; format: cell-based
T2 sequence (whole entry): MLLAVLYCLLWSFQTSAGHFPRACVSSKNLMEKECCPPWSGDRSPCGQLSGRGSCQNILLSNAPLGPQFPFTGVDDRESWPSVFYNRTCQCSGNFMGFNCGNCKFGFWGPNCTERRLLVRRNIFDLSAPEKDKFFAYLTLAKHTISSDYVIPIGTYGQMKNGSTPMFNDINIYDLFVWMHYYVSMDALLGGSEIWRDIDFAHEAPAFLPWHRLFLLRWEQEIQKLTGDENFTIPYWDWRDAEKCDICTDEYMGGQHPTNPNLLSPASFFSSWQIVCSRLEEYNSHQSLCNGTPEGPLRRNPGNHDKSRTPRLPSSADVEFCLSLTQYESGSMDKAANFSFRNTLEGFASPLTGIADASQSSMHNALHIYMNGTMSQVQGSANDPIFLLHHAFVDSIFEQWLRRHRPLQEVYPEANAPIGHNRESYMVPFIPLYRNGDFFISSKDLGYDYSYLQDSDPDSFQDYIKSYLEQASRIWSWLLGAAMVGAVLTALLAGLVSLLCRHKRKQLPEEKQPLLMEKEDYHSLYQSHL

B16-F10 [4] = test: Anti-melanogenic activity against alpha-MSH-stimulated mouse B16-F10 cells assessed as decrease in melanin content incubated for 24 hrs by absorbance based assay; format: functional, cell-based; settings: dose 5-25 µM
A-375 [5] = test: Anti-melanogenic activity against alpha-MSH-stimulated human A-375 cells assessed as decrease in melanin content at 20 uM incubated for 24 hrs by absorbance based assay; format: functional, cell-based
B16-F10 [6] = test: Cytotoxicity against mouse B16-F10 cells at 50 uM incubated for 72 hrs by MTT assay; format: toxicity, cell-based; settings: b16-f10, 72 h
A-375 [7] = test: Cytotoxicity against human A-375 cells at 50 uM incubated for 72 hrs by MTT assay; format: toxicity, cell-based; settings: a-375, 72 h
[8] = molecular target: T3, Tyrosinase (Mus musculus) (UniProt P11344); test: Inhibition of TYR in alpha-MSH-stimulated mouse B16-F10 cells using L-Dopa as substrate incubated for 24 hrs by absorbance based assay; format: cell-based; settings: dose 5-25 µM
T3 sequence (whole entry): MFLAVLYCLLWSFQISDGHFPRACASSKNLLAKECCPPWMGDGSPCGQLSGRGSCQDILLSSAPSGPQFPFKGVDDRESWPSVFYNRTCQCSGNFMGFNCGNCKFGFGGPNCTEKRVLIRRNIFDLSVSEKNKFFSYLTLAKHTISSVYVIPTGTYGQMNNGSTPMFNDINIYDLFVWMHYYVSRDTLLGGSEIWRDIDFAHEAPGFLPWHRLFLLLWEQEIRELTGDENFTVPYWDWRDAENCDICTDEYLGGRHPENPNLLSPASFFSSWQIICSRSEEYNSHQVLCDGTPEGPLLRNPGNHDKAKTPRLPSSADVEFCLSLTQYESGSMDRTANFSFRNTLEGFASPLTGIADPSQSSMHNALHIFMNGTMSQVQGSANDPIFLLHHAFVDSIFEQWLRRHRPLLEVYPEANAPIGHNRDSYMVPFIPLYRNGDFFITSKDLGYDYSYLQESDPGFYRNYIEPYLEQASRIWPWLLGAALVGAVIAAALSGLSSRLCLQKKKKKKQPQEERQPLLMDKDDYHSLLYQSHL

Cavia porcellus [9] = test: Anti-melanogenic activity in guinea pig model of UV-induced skin pigmentation assessed as reduction in melanin production at 1 mM administered topically as CP formulation for 2 weeks measured after 3 days by Fontana-Masson staining based analysis; format: functional, organism-based; settings: time 17.0 day
[10] = Permeability in pig skin explant Franz diffusion cell model assessed as compound remaining intradermal at 2 mg/ml, TOPp measured after 2 hrs by HPLC analysis; format: ADME, tissue-based, Sus scrofa, Skin of body; settings: topical_or_ocular
[11] = Permeability in pig skin explant Franz diffusion cell model assessed as compound remaining intradermal at 2 mg/ml, TOPp measured after 4 hrs by HPLC analysis; format: ADME, tissue-based, Sus scrofa, Skin of body; settings: topical_or_ocular
[12] = Permeability in pig skin explant Franz diffusion cell model assessed as compound remaining transdermal at 2 mg/ml, TOPp measured for 0.5 to 24 hrs by HPLC analysis; format: ADME, tissue-based, Sus scrofa, Skin of body; settings: topical_or_ocular, time 0.5-24 hrs
B16-F10 [13] = test: Downregulation of TYR in mouse B16-F10 cells incubated for 72 hrs by Western blot analysis; format: functional, cell-based; settings: dose 0.1-2 µM
Cavia porcellus [14] = test: Anti-melanogenic activity in guinea pig model of UV-induced skin pigmentation assessed as healing of scorching skin administered topically for 2 weeks measured after 3 days by Fontana-Masson staining based analysis; format: functional, organism-based; settings: dose 0.5-1 mM, time 17.0 day
[15] = Drug distribution in pig skin epidermis at 2 mg/ml, TOPp measured after 2 hrs by OrbiSIMS imaging analysis; format: ADME, tissue-based, Sus scrofa; settings: topical_or_ocular
Cavia porcellus [16] = test: Anti-melanogenic activity in guinea pig model of UV-induced skin pigmentation assessed as inhibition of melanin production administered topically for 2 weeks measured after 3 days by Fontana-Masson staining based analysis; format: functional, organism-based; settings: time 17.0 day
B16-F10 [17] = test: Downregulation of MiTF level in mouse B16-F10 cells incubated for 72 hrs by Western blot analysis; format: functional, cell-based; settings: dose 0.1-2 µM
Cavia porcellus [18] = test: Anti-melanogenic activity in guinea pig model of UV-induced skin pigmentation assessed as reduction in melanin production at 1 mM administered topically as PG formulation for 2 weeks measured after 3 days by Fontana-Masson staining based analysis; format: functional, organism-based; settings: time 17.0 day

IC50 (Mushroom tyrosinase [1]) [µM] | IC50 (Mushroom tyrosinase [2]) [µM] | SMILES | other results
> 10 | > 10 | COc1ccc(C(=O)CCc2ccc(OC)cc2OC)cc1 | 
0.133 | 0.189 | Cc1cccc(C(=O)CCc2ccc(O)cc2O)c1 | 
> 10 | > 10 | O=C(CCc1cccc([N+](=O)[O-])c1)c1ccc(O)cc1O | 
0.232 | 0.644 | CC(C)c1ccc(C(=O)CCc2ccc(O)cc2O)cc1 | 
> 10 | > 10 | COc1ccc(C(=O)CCc2ccc(O)cc2)c(O)c1 | 
> 10 | > 10 | O=C(CCc1ccc(O)cc1)c1ccc(O)cc1O [DAVIDIGENIN] | 
> 10 | > 10 | COc1ccc(C(=O)CCc2ccccc2O)c(O)c1 | 
0.069 | 0.245 | COc1ccc(C(=O)CCc2ccc(O)cc2O)cc1O | 
> 10 | > 10 | COc1ccc(CCC(=O)c2ccc(O)cc2O)c(OC)c1 | 
0.054 | 0.165 | COc1cc(C(=O)CCc2ccc(O)cc2O)ccc1O | inhibition [3]: Active; Activity (B16-F10 [4]): Dose-Dependent Effect; Activity (A-375 [5]): Active; Activity (B16-F10 [6]): Non-Toxic; Activity (A-375 [7]): Non-Toxic; inhibition [8]: Dose-Dependent Effect
> 10 | > 10 | COc1ccc(CCC(=O)c2ccc(O)cc2O)cc1O | 
0.072 | 0.212 | O=C(CCc1ccc(O)cc1O)c1ccc(O)cc1 | 
> 10 | > 10 | COc1ccc(CCC(=O)c2ccc(O)cc2O)c(OC)c1OC | 
> 10 | > 10 | COc1cc(CCC(=O)c2ccc(O)cc2O)cc(OC)c1OC | 
0.089 | 0.171 | COc1ccc(C(=O)CCc2ccc(O)cc2O)cc1 | 
0.05 | 0.064 | O=C(CCc1ccc(O)cc1O)c1ccc(O)cc1O | inhibition [3]: Active; Activity (Cavia porcellus [9]): Active; Activity [10]: 26.77%; Activity (B16-F10 [4]): Dose-Dependent Effect; Activity (A-375 [5]): Active; Activity (B16-F10 [6]): Non-Toxic; Activity [11]: 3.56%; Activity [12]: 1.2%; Activity (B16-F10 [13]): Dose-Dependent Effect; Activity (A-375 [7]): Toxic; inhibition [8]: Dose-Dependent Effect; Activity (Cavia porcellus [14]): Dose-Dependent Effect; Drug uptake [15]: Active; Activity (Cavia porcellus [16]): Dose-Dependent Effect; Activity (B16-F10 [17]): Dose-Dependent Effect; Activity (Cavia porcellus [18]): Active
> 10 | > 10 | COc1cccc(CCC(=O)c2ccc(O)cc2O)c1OC | 

IC50 (Mushroom tyrosinase [1]) [µM] | IC50 (Mushroom tyrosinase [2]) [µM] | SMILES | other results
> 10 | > 10 | Cc1ccccc1CCC(=O)c1ccc(O)cc1O | 
> 10 | > 10 | COc1ccc(CCC(=O)c2ccc(O)cc2O)cc1OC | 
> 10 | > 10 | O=C(CCc1cccc(O)c1)c1ccc(O)cc1O | 
> 10 | > 10 | O=C(CCc1ccccc1O)c1ccc(O)cc1O | 
0.183 | 0.625 | O=C(CCc1ccc(O)cc1O)c1ccccc1 | 
> 10 | > 10 | COc1ccc(C(=O)CCc2ccccc2O)cc1 | 
0.123 | 0.239 | Cc1ccccc1C(=O)CCc1ccc(O)cc1O | 
0.069 | 0.183 | COc1ccc(C(=O)CCc2ccc(O)cc2O)c(O)c1 | 
0.069 | 0.286 | O=C(CCc1ccc(O)cc1O)c1ccccc1O | 
> 10 | > 10 | COc1ccc(CCC(=O)c2ccc(O)cc2O)c(O)c1 | 
> 10 | > 10 | O=C(CCc1ccc(O)c(O)c1)c1ccc(O)cc1O | 
0.119 | 0.189 | O=C(CCc1ccc(O)cc1O)c1ccc(Cl)cc1Cl | 
> 10 | > 10 | COc1ccc(C(=O)CCc2ccc(O)cc2)cc1 | 
0.11 | 0.184 | O=C(CCc1ccc(O)cc1O)c1ccc(Br)cc1 | 
0.331 | 1.431 | O=C(CCc1ccc(O)cc1O)c1ccc(-c2ccccc2)cc1 | 
> 10 | > 10 | COc1cccc(CCC(=O)c2ccc(O)cc2O)c1 | 
